Data set [1] addresses T1, solitary ECF module co-reconstituted with solitary FolT1 (Lactobacillus delbrueckii, UniProt Q1G930).
T1 construct: gene Ldb1624; FolT1 with N-terminal His8 tag from L. lactis NZ9000; ECF module from E. coli, tag removed by TEV; co-reconstituted into proteoliposomes; Energy-coupling factor transporter transmembrane protein EcfT
The data set is described as follows: radiolabelled folate uptake into proteoliposomes. In kind it is biochemical. The following applies: 100 nM folate, 5 mM lumenal Mg-ATP, 50 mM KPi pH 7.5, 30 °C; labelled compound.

Data set [2] concerns the target T2, ECF-FolT2 (Lactobacillus delbrueckii, UniProt Q1G929+Q1GBI9+Q1GBJ0).
T2 construct: gene ecfA1; full complex EcfA-EcfA'-EcfT-FolT2, ~115 kDa; N-terminal His10-TEV tag, C-terminal StrepII tag on FolT2; expressed in E. coli MC1061; MSP2N2 lipid nanodiscs; with Energy-coupling factor transporter transmembrane protein EcfT
The data set is described as follows: cryo-EM structure, […] Å. The settings on record: lipid nanodiscs. It counts as binding.

For another data set, the target named is T3, solitary ECF module (Lactobacillus delbrueckii, UniProt Q1GBI9+Q1GBJ0).
T3 construct: gene ecfA1; EcfA-EcfA'-EcfT without S-component, ~92 kDa; N-terminal His10-TEV tag removed; expressed in E. coli MC1061; MSP2N2 lipid nanodiscs; with Energy-coupling factor transporter transmembrane protein EcfT
T3 sequence (Q1GBI8 entry or part of it, one chain of several, further chain): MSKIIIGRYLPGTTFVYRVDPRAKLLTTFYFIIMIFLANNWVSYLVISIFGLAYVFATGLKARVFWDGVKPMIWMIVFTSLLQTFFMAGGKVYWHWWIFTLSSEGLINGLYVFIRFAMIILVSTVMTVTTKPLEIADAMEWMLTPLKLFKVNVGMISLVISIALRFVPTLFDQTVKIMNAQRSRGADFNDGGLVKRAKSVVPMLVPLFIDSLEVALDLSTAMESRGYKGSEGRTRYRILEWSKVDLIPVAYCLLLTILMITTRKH
The experiment in a line: cryo-EM structure, […] Å. The settings on record: Mg-ATP in both nucleotide sites, closed ATPase dimer; lipid nanodiscs; catalytically inactive double mutant 2EQcryo. It counts as binding.

The target of data set [3] is T2, ECF-FolT2. The experiment in a line: cryo-EM structure, […] Å. It counts as binding. The following applies: 5 mM Mg-AMP-PNP, 10 µM folate, 37 °C; both nucleotide sites; lipid nanodiscs.
Substrate in data set [4]: Nc1ncnc2c1ncn2[C@@H]1O[C@H](COP(=O)(O)OP(=O)(O)OP(=O)(O)O)[C@@H](O)[C@H]1O
The experiment in a line: enzyme-coupled (PK/LDH) spectrophotometric ATPase assay. In kind it is biochemical, Lactobacillus delbrueckii. The following applies: Mg-ATP 0-0.5 mM, 20 mM Tris pH 8.0, 150 mM NaCl, 37 °C, lipid nanodiscs.

T2 sequence (Q1GBI8 entry or part of it, one chain of several, further chain): as above
T2 sequence (Q1G929 entry or part of it, one chain of several): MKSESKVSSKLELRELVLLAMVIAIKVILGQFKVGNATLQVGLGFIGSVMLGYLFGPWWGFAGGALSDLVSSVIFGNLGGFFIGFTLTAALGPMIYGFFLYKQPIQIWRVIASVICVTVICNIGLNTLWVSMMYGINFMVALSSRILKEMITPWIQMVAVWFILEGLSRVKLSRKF
T1 sequence (Q1GBI8 entry or part of it, one chain of several): as the sequence (Q1GBI8 entry or part of it, one chain of several, further chain) above
T1 sequence (Q1GBJ0 whole entry, one chain of several, further chain): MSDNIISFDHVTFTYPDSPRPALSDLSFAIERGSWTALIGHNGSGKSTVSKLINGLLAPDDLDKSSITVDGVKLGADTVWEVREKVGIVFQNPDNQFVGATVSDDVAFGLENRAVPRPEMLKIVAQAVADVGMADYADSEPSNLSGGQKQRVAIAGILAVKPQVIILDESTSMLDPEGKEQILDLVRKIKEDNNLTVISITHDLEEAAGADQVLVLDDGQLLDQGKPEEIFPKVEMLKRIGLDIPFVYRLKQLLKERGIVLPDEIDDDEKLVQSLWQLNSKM
T1 sequence (Q1G930 entry or part of it, one chain of several): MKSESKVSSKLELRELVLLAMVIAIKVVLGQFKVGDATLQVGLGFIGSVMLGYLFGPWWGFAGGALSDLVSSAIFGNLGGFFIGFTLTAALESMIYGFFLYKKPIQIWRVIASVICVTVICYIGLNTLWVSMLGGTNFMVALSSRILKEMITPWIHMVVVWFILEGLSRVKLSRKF

In the case of `Nc1nc2ncc(CNc3ccc(C(=O)N[C@@H](CCC(=O)O)C(=O)O)cc3)nc2c(=O)[nH]1` [folate], the “radiolabelled folate uptake into proteoliposomes” value in data set [1] was “Uptake of folate into the proteoliposome lumen only occurred in the presence of lumenal Mg-ATP”.

`Nc1ncnc2c1ncn2[C@@H]1O[C@H](COP(=O)(O)OP(=O)(O)O)[C@@H](O)[C@H]1O` [ADP]: the “cryo-EM structure, 3.2 Å” value on ECF-FolT2 [2] (5 mM Mg-ATP added, site in EcfA') is listed as “ADP is bound exclusively by residues from the EcfA’ subunit”.

`Nc1ncnc2c1ncn2[C@@H]1O[C@H](COP(=O)(O)OP(=O)(O)OP(=O)(O)O)[C@@H](O)[C@H]1O` [ATP]: at ECF-FolT2 [2] (5 mM Mg-ATP, 10 µM folate, 37 °C, site in EcfA, adenine between EcfA Phe13 and FolT2 Arg174), the “cryo-EM structure, 3.2 Å” value was “ATP and ADP bound to the EcfA and EcfA’ subunits, respectively”. For the same molecule, on solitary ECF module, the “cryo-EM structure, 2.6 Å” value was “In both ATPase subunits, Mg-ATP is now bound and engaged with the signature motif”.

Regarding `Nc1ncnc2c1ncn2[C@@H]1O[C@H](COP(=O)(O)OP(=O)(O)NP(=O)(O)O)[C@@H](O)[C@H]1O` [AMP-PNP], the “cryo-EM structure, 3.6 Å” value on ECF-FolT2 [3] was “with AMP-PNP bound to both nucleotide-binding sites”.

B1: solitary ECF module (Lactobacillus delbrueckii subsp. bulgaricus ATCC 11842 = JCM 1002) (protein)
chain 1: SDNIISFDHVTFTYPDSPRPALSDLSFAIERGSWTALIGHNGSGKSTVSKLINGLLAPDDLDKSSITVDGVKLGADTVWEVREKVGIVFQNPDNQFVGATVSDDVAFGLENRAVPRPEMLKIVAQAVADVGMADYADSEPSNLSGGQKQRVAIAGILAVKPQVIILDESTSMLDPEGKEQILDLVRKIKEDNNLTVISITHDLEEAAGADQVLVLDDGQLLDQGKPEEIFPKVEMLKRIGLDIPFVYRLKQLLKERGIVLPDEIDDDEKLVQSLWQLNSKM
chain 2: MAIKFENVSYVYSPGSPLEAIGLDQLNFSLEEGKFIALVGHTGSGKSTLMQHFNALLKPTSGKIEIAGYTITPETGNKGLKDLRRKVSLAFQFSEAQLFENTVLKDVEYGPRNFGFSEDEAREAALKWLKKVGLKDDLIEHSPFDLSGGQMRRVALAGVLAYEPEIICLDEPAAGLDPMGRLEMMQLFKDYQAAGHTVILVTHNMDDVADYADDVLALEHGRLIKHASPKEVFKDSEWLQKHHLAEPRSARFAAKLEAAGLKLPGQPLTMPELADAIKQSLKGGEHE
notes: EcfA-EcfA'-EcfT without S-component, ~92 kDa; N-terminal His10-TEV tag removed; expressed in E. coli MC1061; MSP2N2 lipid nanodiscs; with Energy-coupling factor transporter transmembrane protein EcfT
For B1, the Km (as a rule, the substrate concentration at which the rate is half of its maximum) in data set [4] came out at 136.2 µM.

These data come from paper PMC10368641, “Expulsion mechanism of the substrate-translocating subunit in ECF transporters” (Nature Communications, 2023).
